Results reported in patent US20180344715A1, “WNT/BETA-CATENIN SIGNAL TRANSDUCTION INHIBITORS AND THEIR USE IN TREATMENT OR PREVENTION OF DISEASES AND CONDITIONS LINKED WITH SAID TRANSDUCTION” (BERGEN TEKNOLOGIOVERFORING AS, priority 2015, published 2018).

Legend:
GFP-SHPRH = target: T1, GFP-SHPRH (Homo sapiens, UniProt Q149N8); assay: MST ligand-binding assay, GFP-SHPRH in SW480 cell lysates; conditions: 25° C., 4 replicates
T1 construct: expressed in transfected cells; host or cells: SW480
Experimental: Ten million SW480 cells overexpressing GFP-tagged SHPRH or free GFP were lysed in 1 mL radioimmunoprecipitation assay (RIPA) buffer. Cell lysates were diluted in buffer A [50 mM Hepes buffer (pH 7.5), 5 mM DTT, 10 mM CaCl2), 50 mM NaCl, and 0.05% Tween-20] to a final concentration at which the fluorescent signals of the GFP proteins were similar and well above the detection limit of the Monolith NT.115 instrument (NanoTemper Technologies GmbH). Ten microliters of each receptor were mixed with 10 μL of the ligand at various concentrations from 100 μM to 3.05 nM. Specifically, the ligand (4 mM in 100% DMSO) was diluted 1:20 to a final concentration of 200 μM in buffer A (giving 5% DMSO). Ten microliters of the 200 μM ligand solution was further serially diluted 1:1 in 10 μL of buffer A supplemented with 5% DMSO to make a 16-sample dilution series down to 6.1 nM. Ten microliters of the cell lysate were added to 10 μL of each ligand solution. […] The fluorescence signal during the thermophoresis was monitored for 30 s, and the change in fluorescence was analyzed as thermophoresis with T-jump. The Kd was calculated by fitting a standard binding curve to the average of four independent dilution series.

SW480 cells [1] = assay: Soft agar colony-formation assay, SW480; type: cell-based; conditions: 10 days
Experimental: The soft agar colony-formation assay was performed using the CellTransformation Assays kit (catalog no. CBA-130; Cell Biolabs, Inc.) according to the recommended protocol. […] Medium containing drugs was replaced every 3 d. For the clonogenic assay, positively transfected cells (wild-type and mutant GFP-SHPRH and control GFP) were enriched by FACS and were seeded in six-well plates at a density of 3,000 cells per well. Medium was changed every 3 d. On the last day colony growth was quantified by crystal violet staining and measurement of OD at 590 nm.

Apc^min/+ mice = assay: Apc min/+ mice study (intestinal adenomas, H&E and IHC); type: in vivo; conditions: 50 mg/kg daily for 5 weeks
Excerpt: C57BL/6-Apc^min/+ mice were obtained from the Model Animal Research Center of Nanjing University (Nanjing, China). Mice were housed and fed a standard rodent diet at the Animal Facility of the Second Military Medical University (Shanghai, China) in compliance with the institutional guidelines of the Animal Care and Use Committee. […] The mice were weighed weekly and monitored daily for any signs of illness. The mice were sacrificed at the last day of the treatment. The small intestines were dissected, washed in PBS, fixed in 4% PBS-buffered formaldehyde and embedded in paraffin using standard procedures.
H&E and IHC were performed according to the protocol previously described (Qu, Y. et al, supra). Primary antibodies used for IHC were β-catenin (ab16051, 1:1000, Abcam), Ki67 (ab16667, clone SP6, 1:100, Abcam) and BrdU (ab6326, clone BU1/75, 1:80, Abcam). Investigators were blinded when counting the intestinal adenomas and assessing the homeostasis of mice and fish intestine. Histologic images were captured using the Qcapture Suite software with a Qimaging Exi Blue camera attached to a Leica DMRBE microscope.

[2] = test system: Apc (VilCre^ER Apc^fl/fl) intestinal organoids; assay: Apc mutant intestinal organoid culture; type: cell-based, mouse; conditions: 7 days
Excerpt: Mouse intestinal Apc (VilCre^ER Apc^fl/fl) organoids were obtained from Owen J. Sansom's laboratory at the Beatson Institute for Cancer Research, Glasgow, UK. The culture protocol has been described previously (14). Briefly, Apc mutant organoids were suspended in Growth Factor Reduced Matrigel (catalog no. 356231; Corning) and cultured in Advanced DMEM/F12 (catalog no. 12634-028; Invitrogen) containing 1% B-27 supplement (50×), minus vitamin A (catalog no. 12587-010; Invitrogen) and 0.1% BSA. Organoids were seeded in 24-well plates at a density of 70-100 organoids/50 μL Matrigel in each well. […] One week later organoids were imaged using the Cytation 5 Cell Imaging Multi-Mode Reader (BioTek Instruments, Inc.).

SW480 cells [3] = assay: EdU label release assay, SW480; type: cell-based; conditions: SW480, 5 μM, 3 days; never found in control cells
Experimental: (§1) Two days later, cells were seeded singly onto 12 mm glass coverslips in 24-well plates. One day after, EdU was detected using the Click-iT® Plus EdU Alexa Fluor 488 Imaging Kit (Life Technologies, C10637) according to the manufacturer's protocol. For double staining of EdU and other proteins, the EdU stained cells were further used for immunofluorescence staining as described above. Intensity of EdU staining in paired cells were quantified by Photoshop CS6 software, unequal EdU distribution was considered when paired cells had intensity ratio higher than 2.

HCT116 cells = assay: EdU label release assay, HCT116; type: cell-based; conditions: HCT116, 5 μM, 3 days
Experimental: as §1

Wnt target genes = assay: RT-PCR of Wnt target genes in 293FT cells; type: cell-based, human; conditions: 24 hours
Excerpt: Reverse transcription (RT) and real-time quantitative PCR (qPCR) were done as previously described (Ke, X. S. et al., 2011, Exp Cell Res 317, 234-247). For qPCR using TagMan Universal PCR Master Mix (Life technologies, 4304437), TagMan assays used for human AXIN2 (Hs00610344_m1), LEF1 (Hs01547250_m1), BMP4 (Hs03676628_s1), CTNNB1 (Hs01076483_m1), VEGFR1 (Hs01052961_m1), MED23 (Hs00606608_m1), SHPRH (Hs00542737_m1) and ACTB1 (Hs99999903_m1) were obtained from Life technologies. For RT-PCR using RT^2 SYBR Green/ROX PCR Master Mix (QIAGEN, 330520), primer oligos were made by Eurogentec (Liege, Belgium).

T1 sequence (Q149N8 whole entry): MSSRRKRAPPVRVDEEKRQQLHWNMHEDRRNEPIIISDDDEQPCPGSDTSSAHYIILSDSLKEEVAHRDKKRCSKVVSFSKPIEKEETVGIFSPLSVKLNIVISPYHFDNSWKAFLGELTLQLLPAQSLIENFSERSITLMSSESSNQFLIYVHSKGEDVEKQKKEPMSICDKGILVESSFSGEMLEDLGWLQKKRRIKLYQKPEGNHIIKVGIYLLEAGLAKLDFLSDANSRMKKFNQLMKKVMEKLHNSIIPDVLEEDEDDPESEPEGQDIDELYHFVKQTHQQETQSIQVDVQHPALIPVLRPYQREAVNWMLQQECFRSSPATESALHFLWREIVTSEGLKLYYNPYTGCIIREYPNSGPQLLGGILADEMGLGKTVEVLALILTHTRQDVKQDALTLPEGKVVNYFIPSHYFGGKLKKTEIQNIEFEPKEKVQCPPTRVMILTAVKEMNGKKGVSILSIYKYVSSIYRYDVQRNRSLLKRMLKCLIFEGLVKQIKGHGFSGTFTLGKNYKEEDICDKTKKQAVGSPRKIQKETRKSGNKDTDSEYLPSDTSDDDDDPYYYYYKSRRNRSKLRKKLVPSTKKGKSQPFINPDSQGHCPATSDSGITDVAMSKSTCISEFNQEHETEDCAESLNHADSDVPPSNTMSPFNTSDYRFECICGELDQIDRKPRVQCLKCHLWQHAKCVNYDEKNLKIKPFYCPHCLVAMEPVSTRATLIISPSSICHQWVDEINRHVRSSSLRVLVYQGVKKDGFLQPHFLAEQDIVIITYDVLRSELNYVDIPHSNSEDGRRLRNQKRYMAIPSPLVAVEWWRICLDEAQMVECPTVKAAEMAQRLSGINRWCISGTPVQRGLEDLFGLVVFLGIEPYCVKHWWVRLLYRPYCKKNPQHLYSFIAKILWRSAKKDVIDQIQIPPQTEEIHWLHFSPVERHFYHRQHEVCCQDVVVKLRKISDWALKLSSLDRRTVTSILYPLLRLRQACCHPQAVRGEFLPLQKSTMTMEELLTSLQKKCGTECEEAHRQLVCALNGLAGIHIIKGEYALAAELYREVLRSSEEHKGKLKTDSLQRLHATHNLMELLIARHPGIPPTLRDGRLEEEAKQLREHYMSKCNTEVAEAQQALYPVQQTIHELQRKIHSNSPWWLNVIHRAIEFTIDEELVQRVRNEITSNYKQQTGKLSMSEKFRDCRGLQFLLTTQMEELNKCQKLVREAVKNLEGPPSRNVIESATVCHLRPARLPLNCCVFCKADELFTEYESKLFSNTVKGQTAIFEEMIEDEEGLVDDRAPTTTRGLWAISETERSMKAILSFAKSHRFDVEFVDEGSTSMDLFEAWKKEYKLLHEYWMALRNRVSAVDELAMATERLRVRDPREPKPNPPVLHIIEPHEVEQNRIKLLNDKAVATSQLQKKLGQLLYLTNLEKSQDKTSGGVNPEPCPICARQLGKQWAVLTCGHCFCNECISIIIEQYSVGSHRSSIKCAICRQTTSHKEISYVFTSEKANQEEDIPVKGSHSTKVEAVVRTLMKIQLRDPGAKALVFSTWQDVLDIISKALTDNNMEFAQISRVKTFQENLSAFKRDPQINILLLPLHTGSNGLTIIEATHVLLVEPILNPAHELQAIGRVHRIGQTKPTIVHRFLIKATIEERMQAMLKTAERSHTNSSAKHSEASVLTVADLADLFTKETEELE

CNC(=O)c1ccccc1Sc1ccc2c(/C=C/c3ccccn3)n[nH]c2c1 [axitinib, N-Methyl-2-[[3-[(E)-2-pyridin-2-ylethenyl]-1H-indazol-6-yl]sulfanyl]benzamide]
Kd (GFP-SHPRH): 10.4 ± 3.3 µM
colony growth (SW480 cells [1]): strongly and dose-dependently inhibited
normal-looking small intestine: mucosa organization, crypt density, distribution of Ki67 positive cells (Apc^min/+ mice): no obvious change
nuclear β-catenin in adenomas (IHC) (Apc^min/+ mice): reduced nuclear β-catenin
staining of the proliferation marker Ki67 in adenomas (Apc^min/+ mice): Obviously weaker staining
numbers of multi-villus adenomas and microadenomas (Apc^min/+ mice; oral gavage): significantly decreased
growth of Apc-deleted murine organoids [2]: strongly inhibited
cells with unequal EdU labelling (EdU ACD) (SW480 cells [3]): around 15%
EdU ACD (HCT116 cells): increased significantly
mRNA levels of Wnt target genes (Wnt target genes): decreases
